{"source": "patent US20230133037A1", "about": "“EXTENDED RELEASE GASTRORETENTIVE FORMULATION AGAINST HELICOBACTER PYLORI” (SOLSTAR PHARMA, priority 2019, published 2023)", "key": {"H. pylori PremSS1 strain": {"tested_on": "H. pylori PremSS1 strain", "experiment": "In vivo test of anti-Helicobacter pylori activities", "set-up": "species or system C57BL/6 mice", "conditions": "ARTE/SG 40, Nacinn 40, Amoxicillin 30 mg/kg", "description": "C57BL/6 mice with SPF («specific pathogen free») status, were housed at the A2 pet store at the University of Bordeaux, in an acclimatization room for 1 week and then transferred to zone of experimentation where the project was conducted.\nThe H. pylori PremSS1 strain (supplied by Dr Anne Mueller, University of Zurich) was used. The functionality of the cagPAl island was verified in vitro in a coculture model with the gastric epithelial line AGS: induction of a so-called «hummingbird» phenotype.\nThe mice were force-fed at 6 weeks of age with the H. pylori premSS1 strain. The gavages were carried out 3 consecutive days, with a rich suspension of bacteria (2 to 3 dishes of rich culture for 5 mice). […]\nThe dishes were incubated at 35° C. in a microaerobic atmosphere and H. pylori was identified by its phenotypic and biochemical characteristics (morphology, urease test, oxidase test). The dishes were read after at least 5 days of incubation. […]\nQuantitative PCR: the presence of H. pylori DNA and mouse housekeeping genes is quantified in the extracts by quantitative PCR in real time, by detecting the fluorescence emitted by the neo PCR products formed using Sybr Green™. […]"}, "E. coli": {"tested_on": "E. coli", "experiment": "Antibacterial activity of artesunate with different treatments", "format": "cell-based", "conditions": "0.2% w/w in medium, start 1.0×10^6 CFU/mL, 18 h at 36.5° C.", "description": "Practically, a bacterial cryovial is thawed and cultured twice during 18 h at 36.5° C. in 9 mL of broth for activation."}, "[1]": {"experiment": "Solubility in simulated gastric fluid", "format": "physicochemical", "conditions": "0.5 g in 10 mL SGF pH 1.2, 36.5° C.; for appearance of the solution in SGF after 2 hours: 100 rev/min", "protocol": "All solutions are incubated at 36.5° C. under mild shaking with (100 rev/min) in a G24 Environmental Incubator Shaker (New Brunswick Scientific Co., N.J., USA)."}, "[2]": {"experiment": "Water solubility / behaviour in solution", "format": "physicochemical"}, "THP1 cells": {"tested_on": "THP1 cells", "experiment": "Cell growth, resazurin fluorescence assay", "format": "cell-based", "conditions": "2 μM, 3 days", "description": "(§1) Cell growth was followed via the resazurin (alamar blue) fluorescence assay. At day −1, cells were seeded in 100 μL media at a density of 4×10^3 cells/well in 96-well plates and incubated overnight at 37° C. […] Cultures were performed during 3 days after the addition of the drugs. At day 3, Resazurin (0.1 mg/mL, Sigma-Aldrich) was added at 20 μL/well, and plates were incubated for 4 h at 37° C., then fluorescence (Aex=529.5 nm, Aem =582 nm) was measured using ClarioStar™ microplate reader.\n(§2) Those supposedly selected cells may be used to test for artemisinin sensitivity before and after encapsulation. This first objective, in addition to checking the sensitivity to artesunate (ARTE), is to test the sensitivity to the complex form (ARTE/Starch Glycolate) as well. This provides information on whether the encapsulation process affects the efficiency of ARTE in vitro. The effects of both drugs on the proliferation of 10 AML cell lines and 1 CML cell line was tested. Both the drug or the drug/Starch Glycolate complex were used at 2 μM, a dose that has been reported to be very efficient at least in two AML cell lines (MV4-11 and MOLM13). The ARTE/Starch Glycolate in water was prepared fresh every time for each experiment. Frozen (−20° C.) ARTE/Starch Glycolate complex was also tested in parallel to fresh ARTE/Starch Glycolate in each experiment, to evaluate stability after freezing. • a."}, "ML2 cells": {"tested_on": "ML2 cells", "experiment": "Cell growth, resazurin fluorescence assay", "format": "cell-based", "conditions": "2 μM, 3 days", "description": "as §1, §2"}, "HL60 cells": {"tested_on": "HL60 cells", "experiment": "Cell growth, resazurin fluorescence assay", "format": "cell-based", "conditions": "2 μM, 3 days", "description": "as §1, §2"}, "NB4 cells": {"tested_on": "NB4 cells", "experiment": "Cell growth, resazurin fluorescence assay", "format": "cell-based", "conditions": "2 μM, 3 days", "description": "as §1, §2"}, "HEL cells": {"tested_on": "HEL cells", "experiment": "Cell growth, resazurin fluorescence assay", "format": "cell-based", "conditions": "2 μM, 3 days", "description": "as §1, §2"}, "U937 cells": {"tested_on": "U937 cells", "experiment": "Cell growth, resazurin fluorescence assay", "format": "cell-based", "conditions": "2 μM, 3 days", "description": "as §1, §2"}, "MOLM13 cells": {"tested_on": "MOLM13 cells", "experiment": "Cell growth, resazurin fluorescence assay", "format": "cell-based", "conditions": "2 μM, 3 days", "description": "as §1, §2"}, "H. pylori strains": {"tested_on": "H. pylori strains", "experiment": "Minimum inhibitory concentration, agar dilution method", "format": "cell-based", "conditions": "Helicobacter pylori; about 59 strains, 48 h at 37° C., microaerobic"}, "KG1a cells": {"tested_on": "KG1a cells", "experiment": "Cell growth, resazurin fluorescence assay", "format": "cell-based", "conditions": "3 days", "description": "Cell growth was followed via the resazurin (alamar blue) fluorescence assay. At day −1, cells were seeded in 100 μL media at a density of 4×10^3 cells/well in 96-well plates and incubated overnight at 37° C. […] Cultures were performed during 3 days after the addition of the drugs. At day 3, Resazurin (0.1 mg/mL, Sigma-Aldrich) was added at 20 μL/well, and plates were incubated for 4 h at 37° C., then fluorescence (Aex=529.5 nm, Aem =582 nm) was measured using ClarioStar™ microplate reader. […] Those supposedly selected cells may be used to test for artemisinin sensitivity before and after encapsulation. This first objective, in addition to checking the sensitivity to artesunate (ARTE), is to test the sensitivity to the complex form (ARTE/Starch Glycolate) as well. This provides information on whether the encapsulation process affects the efficiency of ARTE in vitro. The effects of both drugs on the proliferation of 10 AML cell lines and 1 CML cell line was tested. […] ARTE.SG and ARTE have the Same IC50 in 4 Representative Leukemic Cell Lines To further confirm the equivalent efficiency between ARTE and ARTE.SG, the IC50 of both drugs on 4 leukemic cell lines that cover the 3 sensitivity groups described above was calculated."}, "[3]": {"conditions": "according to the DrugBank; cited from earlier work"}, "[4]": {"set-up": "species or system CD-1 mice", "conditions": "CD-1, mouse, in vivo, po, 200 mg/kg", "protocol": "The in vivo study was carried out on CD-1 mice (body weight approximately 20 g), and the experimental protocol is conducted according to the Animal Care Committee approval. After review of the medical records provided by the animal supplier facility, mice are observed during 1 week for their acclimation before the experiment."}, "MV4-11 cells": {"tested_on": "MV4-11 cells", "experiment": "Cell growth, resazurin fluorescence assay", "format": "cell-based", "conditions": "3 days", "description": "(§3) Cell growth was followed via the resazurin (alamar blue) fluorescence assay. At day −1, cells were seeded in 100 μL media at a density of 4×10^3 cells/well in 96-well plates and incubated overnight at 37° C. […] Cultures were performed during 3 days after the addition of the drugs. At day 3, Resazurin (0.1 mg/mL, Sigma-Aldrich) was added at 20 μL/well, and plates were incubated for 4 h at 37° C., then fluorescence (Aex=529.5 nm, Aem =582 nm) was measured using ClarioStar™ microplate reader. […] Those supposedly selected cells may be used to test for artemisinin sensitivity before and after encapsulation. This first objective, in addition to checking the sensitivity to artesunate (ARTE), is to test the sensitivity to the complex form (ARTE/Starch Glycolate) as well. This provides information on whether the encapsulation process affects the efficiency of ARTE in vitro. The effects of both drugs on the proliferation of 10 AML cell lines and 1 CML cell line was tested. Both the drug or the drug/Starch Glycolate complex were used at 2 μM, a dose that has been reported to be very efficient at least in two AML cell lines (MV4-11 and MOLM13). The ARTE/Starch Glycolate in water was prepared fresh every time for each experiment. Frozen (−20° C.) ARTE/Starch Glycolate complex was also tested in parallel to fresh ARTE/Starch Glycolate in each experiment, to evaluate stability after freezing. • a."}, "K562 cells": {"tested_on": "K562 cells", "experiment": "Cell growth, resazurin fluorescence assay", "format": "cell-based", "conditions": "3 days", "description": "as §3"}, "KG1 cells": {"tested_on": "KG1 cells", "experiment": "Cell growth, resazurin fluorescence assay", "format": "cell-based", "conditions": "3 days", "description": "as §3"}, "[5]": {"set-up": "species or system CD-1 mice", "conditions": "CD-1, mouse, in vivo", "protocol": "The in vivo study was carried out on CD-1 mice (body weight approximately 20 g), and the experimental protocol is conducted according to the Animal Care Committee approval.\nAfter review of the medical records provided by the animal supplier facility, mice are observed during 1 week for their acclimation before the experiment.\nAfter administering the treatments as indicated above, blood samples are collected at 5, 15, 30, 45, 120 and 480 minutes after administration and mice are sacrificed. The plasma is separated by centrifugation and conserved −80° C. before processing.\nAn amount of 400 μL of plasma is dispersed in 1 mL of acetonitrile to precipitate proteins and agitated during 5 minutes with a vortex before placing the suspensions of the sample in an ultrasonic bath for 1 minute. The precipitated proteins are separated by centrifugation (15000 g, 5 minutes at 16° C.) and the supernatant is collected in a microplate for analysis."}}, "note": "Read-outs that look alike come from different tables or passages of the source.", "data": [{"smiles": "CC1(C)S[C@@H]2[C@H](NC(=O)[C@H](N)c3ccc(O)cc3)C(=O)N2[C@H]1C(=O)O", "note": "[Amoxicillin]", "values": [{"measurement": "antibacterial effect by quantitative culture or quantitative PCR (Experiment 1)", "setting": "H. pylori PremSS1 strain; 7 days of treatment, absence of proton pump inhibitor", "result": "no antibacterial effect"}, {"measurement": "antibacterial effect by quantitative culture or quantitative PCR (Experiment 2)", "setting": "H. pylori PremSS1 strain; 14 days, with Pantoprazole 150 mg/kg", "result": "certain antibacterial effect"}]}, {"smiles": "C[C@H]1[C@H](OC(=O)CCC(=O)[O-])O[C@@H]2O[C@@]3(C)CC[C@H]4[C@H](C)CC[C@@H]1[C@@]24OO3.[Na+]", "note": "[artesunate sodium salt form]", "values": [{"measurement": "bacterial concentration after incubation (reduction from 10^6)", "setting": "E. coli", "result": "10^4 CFU/mL"}, {"measurement": "appearance of the solution in SGF after 2 hours", "setting": "[1]", "result": "cloudy, but no evident precipitation is observed"}, {"measurement": "appearance of the solution in SGF after 12 h", "setting": "[1]", "result": "a precipitation is formed at the bottom"}, {"measurement": "solubility in water", "setting": "[2]", "result": "only slightly soluble"}]}, {"smiles": "C[C@@H]1CCC2[C@@H](C)[C@H](OC(=O)CCC(=O)O)OC3O[C@@]4(C)CCC1[C@]32OO4", "note": "(stereo partly shown) [untreated artesunate, Artesunate]", "values": [{"measurement": "sensitivity group", "setting": "THP1 cells", "result": "highly sensitive"}, {"measurement": "sensitivity group", "setting": "ML2 cells", "result": "moderately sensitive"}, {"measurement": "sensitivity group", "setting": "HL60 cells", "result": "moderately sensitive"}, {"measurement": "sensitivity group", "setting": "NB4 cells", "result": "highly sensitive"}, {"measurement": "sensitivity group", "setting": "HEL cells", "result": "moderately sensitive"}, {"measurement": "sensitivity group", "setting": "U937 cells", "result": "moderately sensitive"}, {"measurement": "sensitivity group", "setting": "MOLM13 cells", "result": "highly sensitive"}, {"measurement": "MIC50", "setting": "H. pylori strains", "result": 20, "unit": "µg/mL"}, {"measurement": "MIC90", "setting": "H. pylori strains", "result": 80, "unit": "µg/mL"}, {"measurement": "sensitivity group", "setting": "KG1a cells; 2 μM", "result": "low sensitivity"}, {"measurement": "IC50", "setting": "KG1a cells; Homo sapiens, KG-1a, 72 h, preliminary", "result": "~2", "unit": "µM"}, {"measurement": "water solubility", "setting": "[3]", "result": 680, "unit": "µg/mL"}, {"measurement": "bacterial concentration after incubation (reduction from 10^6)", "setting": "E. coli", "result": "no significant change"}, {"measurement": "appearance of the solution in SGF after 2 hours", "setting": "[1]", "result": "milky appearance, with an important precipitation at the bottom of vial"}, {"measurement": "appearance of the solution in SGF after 12 h", "setting": "[1]", "result": "no change"}, {"measurement": "time to maximum concentration of DHA (prostate section, printed 'in the brain')", "setting": "[4]", "result": 30, "unit": "min"}, {"measurement": "sensitivity group", "setting": "MV4-11 cells; 2 μM", "result": "highly sensitive"}, {"measurement": "IC50", "setting": "MV4-11 cells; Homo sapiens, MV4-11, 72 h, preliminary", "result": "0.25 to 0.5", "unit": "µM"}, {"measurement": "sensitivity group", "setting": "K562 cells; 2 μM", "result": "low sensitivity"}, {"measurement": "IC50", "setting": "K562 cells; Homo sapiens, K562, 72 h, preliminary", "result": "~8", "unit": "µM"}, {"measurement": "sensitivity group", "setting": "KG1 cells; 2 μM", "result": "moderately sensitive"}, {"measurement": "IC50", "setting": "KG1 cells; Homo sapiens, KG-1, 72 h, preliminary", "result": "~1", "unit": "µM"}, {"measurement": "AUC Area under curve", "setting": "[5]; iv, 3.5 mg/kg", "result": "507 ± 102", "unit": "ng·min/mL"}, {"measurement": "Cl Clearance", "setting": "[5]; iv, 3.5 mg/kg", "result": "415.8 ± 23.9", "unit": "L/h/kg"}, {"measurement": "Tmax Maximum peak time", "setting": "[5]; iv, 3.5 mg/kg", "result": 15, "unit": "min"}, {"measurement": "T½ Apparent plasma half-life", "setting": "[5]; iv, 3.5 mg/kg", "result": "12 ± 2", "unit": "min"}, {"measurement": "Cl Clearance", "setting": "[5]; po, 200 mg/kg", "result": "1457.7 ± 511.6", "unit": "L/h/kg"}, {"measurement": "Oral Bioavailability F", "setting": "[5]; po, 200 mg/kg", "result": "8 ± 4", "unit": "%"}]}]}
